The experiment concerns the target T1, recombinant human 5-HT6 receptor (Homo sapiens, UniProt P50406).
T1 construct: expressed in transfected cells
Nature of the experiment: in vitro radioligand binding, [3H]LSD competition in HEK293 cell membranes. Particulars: for Ki: [3H]LSD (5 nM) displacement, membranes of HEK293 cells stably expressing recombinant human 5-HT6 receptor, pH 7.4, 37° C., 60 min, read-out: pKi (converted). The procedure: The binding activity of compounds of this invention in vitro was determined as follows. Duplicate determinations of ligand affinity are made by competing for binding of [^3H]LSD in cell membranes derived from HEK293 cells stably expressing recombinant human 5-HT6 receptor.
All determinations were made in assay buffer containing 50 mM Tris-HCl, 10 mM MgSO4, 0.5 mM EDTA, 1 mM ascorbic acid, pH 7.4 at 37° C., in a 250 microliter reaction volume. Assay tubes containing [^3H] LSD (5 nM), competing ligand, and membrane were incubated in a shaking water bath for 60 min. at 37° C., filtered onto Packard GF-B plates (pre-soaked with 0.3% PEI) using a Packard 96 well cell harvester and washed 3 times in ice cold 50 mM Tris-HCl. Bound [^3H] LSD was determined as radioactive counts per minute using Packard TopCount.
Displacement of [3H]LSD from the binding sites was quantified by fitting concentration-binding data to a 4-parameter logistic equation:
[formula] where Hill is the Hill slope, [ligand] is the concentration of competing radioligand and IC50 is the concentration of radioligand producing half-maximal specific binding of radioligand. The specific binding window is the difference between the Bmax and the basal parameters.

pKi: −log10 of the molar value. Where two headings read alike, the source gives them in different places.

T1 sequence (P50406 whole entry): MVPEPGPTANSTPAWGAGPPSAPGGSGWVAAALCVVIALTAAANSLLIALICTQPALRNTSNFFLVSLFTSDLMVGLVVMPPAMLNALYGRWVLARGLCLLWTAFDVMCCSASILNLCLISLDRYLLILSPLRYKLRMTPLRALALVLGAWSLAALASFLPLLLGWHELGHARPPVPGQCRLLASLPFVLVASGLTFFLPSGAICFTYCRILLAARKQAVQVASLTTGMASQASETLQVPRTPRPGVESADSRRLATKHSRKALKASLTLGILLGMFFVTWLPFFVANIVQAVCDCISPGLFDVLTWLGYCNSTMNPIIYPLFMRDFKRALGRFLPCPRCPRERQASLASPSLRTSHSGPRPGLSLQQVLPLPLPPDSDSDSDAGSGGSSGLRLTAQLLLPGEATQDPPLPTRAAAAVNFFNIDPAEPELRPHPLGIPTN

As to `CN1CCN(c2cccc3[nH]c(S(=O)(=O)c4ccccc4)cc23)CC1` [Compound 2, 2-Benzenesulfonyl-4-(4-methyl-piperazin-1-yl)-1H-indole], the Ki is 0.126 nM.

The term pKi denotes the Ki on a negative log10 scale, so that one unit is a factor of ten. `Cn1c(S(=O)(=O)c2ccccc2)cc2c(N3CCNCC3)cccc21` [Compound 5, 2-Benzenesulfonyl-1-methyl-4-piperazin-1-yl-1H-indole]: the negative logarithm of the Ki (pKi) is 9.70.

In the case of `CC1CN(c2cccc3[nH]c(S(=O)(=O)c4ccccc4)cc23)CC(C)N1` (stereo not drawn) [Compound 9, 2-Benzenesulfonyl-4-(3,5-dimethyl-piperazin-1-yl)-1H-indole], the Ki is 0.794 nM.

As for `CN1CCN(c2cccc3[nH]c(S(=O)(=O)c4ccccc4F)cc23)CC1` [Compound 12, 2-(2-Fluoro-benzenesulfonyl)-4-(4-methyl-piperazin-1-yl)-1H-indole], the Ki was 0.126 nM.

As to `Cn1c(S(=O)(=O)c2cccc(Br)c2)cc2c(N3CCNCC3)cccc21` [Compound 14, 2-(3-Bromo-benzenesulfonyl)-1-methyl-4-piperazin-1-yl-1H-indole], the pKi is 9.30.

Take `O=S(=O)(c1ccccc1)c1cc2c(C3CCNCC3)cccc2[nH]1` [Compound 15, 2-Benzenesulfonyl-4-piperidin-4-yl-1H-indole]: the Ki is 0.631 nM.

(Values after US7381739B2, “2,4-substituted indoles and methods of use” (Roche Palo Alto LLC, priority 2002, dated 2008).)
